Experimental data taken from ChEMBL document CHEMBL5634115, “Exploring novel anticancer pyrazole benzenesulfonamides featuring tail approach strategy as carbonic anhydrase inhibitors” (Eur J Med Chem, 2023).

Legend:
Assay in all cases: cells
[1] = tested on: RPMI-8226; type: functional; conditions: Homo sapiens, time 48 hrs
Description: Growth inhibition of human RPMI-8226 cells measured after 48 hrs by sulforhodamine B assay

[2] = tested on: MDA-MB-435; type: functional; conditions: Homo sapiens, time 48 hrs
Description: Cytostatic activity against human MDA-MB-435 cells assessed as total growth inhibition measured after 48 hrs by sulforhodamine B assay

[3] = tested on: SK-OV-3; type: functional; conditions: Homo sapiens, time 48 hrs
Description: Growth inhibition of human SK-OV-3 cells measured after 48 hrs by sulforhodamine B assay

[4] = tested on: MDA-MB-231; conditions: Homo sapiens, MDA-MB-231, 48 h, read-out: LC50
Description: Cytotoxicity activity against human MDA-MB-231 cells assessed as reduction in cell growth measured after 48 hrs by sulforhodamine B assay

[5] = tested on: ACHN; conditions: Homo sapiens, 48 h, read-out: LC50
Description: Cytotoxicity activity against human ACHN cells assessed as reduction in cell growth measured after 48 hrs by sulforhodamine B assay

[6] = tested on: RXF 393; type: functional; conditions: Homo sapiens, time 48 hrs
Description: Growth inhibition of human RXF 393 cells measured after 48 hrs by sulforhodamine B assay

[7] = tested on: 786-0; type: functional; conditions: Homo sapiens, time 48 hrs
Description: Growth inhibition of human 786-0 cells measured after 48 hrs by sulforhodamine B assay

[8] = tested on: SNB-75; conditions: Homo sapiens, SNB-75, 48 h, read-out: LC50
Description: Cytotoxicity activity against human SNB-75 cells assessed as reduction in cell growth measured after 48 hrs by sulforhodamine B assay

[9] = tested on: TK-10; conditions: Homo sapiens, TK-10, 48 h, read-out: LC50
Description: Cytotoxicity activity against human TK-10 cells assessed as reduction in cell growth measured after 48 hrs by sulforhodamine B assay

[10] = tested on: OVCAR-3; type: functional; conditions: Homo sapiens, time 48 hrs
Description: Cytostatic activity against human OVCAR-3 cells assessed as total growth inhibition measured after 48 hrs by sulforhodamine B assay

[11] = tested on: HT-29; type: functional; conditions: Homo sapiens, time 48 hrs
Description: Growth inhibition of human HT-29 cells measured after 48 hrs by sulforhodamine B assay

[12] = tested on: SF-268; conditions: Homo sapiens, SF-268, 48 h, read-out: LC50
Description: Cytotoxicity activity against human SF-268 cells assessed as reduction in cell growth measured after 48 hrs by sulforhodamine B assay

[13] = tested on: ACHN; type: functional; conditions: Homo sapiens, time 48 hrs
Description: Cytostatic activity against human ACHN cells assessed as total growth inhibition measured after 48 hrs by sulforhodamine B assay

[14] = tested on: A549; type: functional; conditions: Homo sapiens, time 48 hrs
Description: Cytostatic activity against human A549 cells assessed as total growth inhibition measured after 48 hrs by sulforhodamine B assay

[15] = tested on: RPMI-8226; conditions: Homo sapiens, RPMI-8226, 48 h, read-out: LC50
Description: Cytotoxicity activity against human RPMI-8226 cells assessed as reduction in cell growth measured after 48 hrs by sulforhodamine B assay

[16] = tested on: MOLT-4; type: functional; conditions: Homo sapiens, time 48 hrs
Description: Cytostatic activity against human MOLT-4 cells assessed as total growth inhibition measured after 48 hrs by sulforhodamine B assay

[17] = tested on: BT-549; type: functional; conditions: Homo sapiens, time 48 hrs
Description: Cytostatic activity against human BT-549 cells assessed as total growth inhibition measured after 48 hrs by sulforhodamine B assay

[18] = tested on: Hs-578T; type: functional; conditions: Homo sapiens, time 48 hrs
Description: Cytostatic activity against human Hs-578T cells assessed as total growth inhibition measured after 48 hrs by sulforhodamine B assay

[19] = tested on: MDA-MB-468; conditions: Homo sapiens, MDA-MB-468, 48 h, read-out: LC50
Description: Cytotoxicity activity against human MDA-MB-468 cells assessed as reduction in cell growth measured after 48 hrs by sulforhodamine B assay

[20] = tested on: HL-60(TB); conditions: Homo sapiens, HL-60, 48 h, read-out: LC50
Description: Cytotoxicity activity against human HL-60(TB) cells assessed as reduction in cell growth measured after 48 hrs by sulforhodamine B assay

[21] = tested on: CAKI-1; type: functional; conditions: Homo sapiens, time 48 hrs
Description: Growth inhibition of human CAKI-1 cells measured after 48 hrs by sulforhodamine B assay

[22] = tested on: UACC-257; type: functional; conditions: Homo sapiens, time 48 hrs
Description: Growth inhibition of human UACC-257 cells measured after 48 hrs by sulforhodamine B assay

[23] = tested on: UACC-62; conditions: Homo sapiens, UACC-62, 48 h, read-out: LC50
Description: Cytotoxicity activity against human UACC-62 cells assessed as reduction in cell growth measured after 48 hrs by sulforhodamine B assay

[24] = tested on: Malme-3M; type: functional; conditions: Homo sapiens, time 48 hrs
Description: Cytostatic activity against human Malme-3M cells assessed as total growth inhibition measured after 48 hrs by sulforhodamine B assay

[25] = tested on: SF-295; conditions: Homo sapiens, SF-295, 48 h, read-out: LC50
Description: Cytotoxicity activity against human SF-295 cells assessed as reduction in cell growth measured after 48 hrs by sulforhodamine B assay

[26] = tested on: SNB-19; type: functional; conditions: Homo sapiens, time 48 hrs
Description: Cytostatic activity against human SNB-19 cells assessed as total growth inhibition measured after 48 hrs by sulforhodamine B assay

[27] = tested on: UO-31; type: functional; conditions: Homo sapiens, time 48 hrs
Description: Cytostatic activity against human UO-31 cells assessed as total growth inhibition measured after 48 hrs by sulforhodamine B assay

[28] = tested on: EKVX; type: functional; conditions: Homo sapiens, time 48 hrs
Description: Cytostatic activity against human EKVX cells assessed as total growth inhibition measured after 48 hrs by sulforhodamine B assay

[29] = tested on: MDA-MB-435; type: functional; conditions: Homo sapiens, time 48 hrs; remark: listed apart in the source
Description: Growth inhibition of human MDA-MB-435 cells measured after 48 hrs by sulforhodamine B assay

[30] = tested on: HCC 2998; type: functional; conditions: Homo sapiens, time 48 hrs
Description: Cytostatic activity against human HCC 2998 cells assessed as total growth inhibition measured after 48 hrs by sulforhodamine B assay

[31] = tested on: HL-60(TB); type: functional; conditions: Homo sapiens, time 48 hrs
Description: Growth inhibition of human HL-60(TB) cells measured after 48 hrs by sulforhodamine B assay

[32] = tested on: SK-MEL-5; conditions: Homo sapiens, SK-MEL-5, 48 h, read-out: LC50
Description: Cytotoxicity activity against human SK-MEL-5 cells assessed as reduction in cell growth measured after 48 hrs by sulforhodamine B assay

[33] = tested on: HCT-15; conditions: Homo sapiens, HCT-15, 48 h, read-out: LC50
Description: Cytotoxicity activity against human HCT-15 cells assessed as reduction in cell growth measured after 48 hrs by sulforhodamine B assay

[34] = tested on: LOX IMVI; type: functional; conditions: Homo sapiens, time 48 hrs
Description: Cytostatic activity against human LOX IMVI cells assessed as total growth inhibition measured after 48 hrs by sulforhodamine B assay

[35] = tested on: RXF 393; type: functional; conditions: Homo sapiens, time 48 hrs; remark: listed apart in the source
Description: Cytostatic activity against human RXF 393 cells assessed as total growth inhibition measured after 48 hrs by sulforhodamine B assay

[36] = tested on: MDA-MB-231; type: functional; conditions: Homo sapiens, time 48 hrs
Description: Cytostatic activity against human MDA-MB-231 cells assessed as total growth inhibition measured after 48 hrs by sulforhodamine B assay

[37] = tested on: SNB-19; conditions: Homo sapiens, SNB-19, 48 h, read-out: LC50
Description: Cytotoxicity activity against human SNB-19 cells assessed as reduction in cell growth measured after 48 hrs by sulforhodamine B assay

[38] = tested on: KM12; type: functional; conditions: Homo sapiens, time 48 hrs
Description: Growth inhibition of human KM12 cells measured after 48 hrs by sulforhodamine B assay

[39] = tested on: UO-31; conditions: Homo sapiens, UO-31, 48 h, read-out: LC50
Description: Cytotoxicity activity against human UO-31 cells assessed as reduction in cell growth measured after 48 hrs by sulforhodamine B assay

[40] = tested on: SF-539; conditions: Homo sapiens, SF-539, 48 h, read-out: LC50
Description: Cytotoxicity activity against human SF-539 cells assessed as reduction in cell growth measured after 48 hrs by sulforhodamine B assay

[41] = tested on: T47D; type: functional; conditions: Homo sapiens, time 48 hrs
Description: Growth inhibition of human T47D cells measured after 48 hrs by sulforhodamine B assay

[42] = tested on: HCT-116; type: functional; conditions: Homo sapiens, time 48 hrs
Description: Growth inhibition of human HCT-116 cells measured after 48 hrs by sulforhodamine B assay

[43] = tested on: HCT-15; type: functional; conditions: Homo sapiens, time 48 hrs
Description: Growth inhibition of human HCT-15 cells measured after 48 hrs by sulforhodamine B assay

[44] = tested on: SNB-19; type: functional; conditions: Homo sapiens, time 48 hrs; remark: listed apart in the source
Description: Growth inhibition of human SNB-19 cells measured after 48 hrs by sulforhodamine B assay

[45] = tested on: NCI/ADR-RES; type: functional; conditions: Homo sapiens, time 48 hrs
Description: Cytostatic activity against human NCI/ADR-RES cells assessed as total growth inhibition measured after 48 hrs by sulforhodamine B assay

[46] = tested on: HOP-62; type: functional; conditions: Homo sapiens, time 48 hrs
Description: Growth inhibition of human HOP-62 cells measured after 48 hrs by sulforhodamine B assay

[47] = tested on: SNB-75; type: functional; conditions: Homo sapiens, time 48 hrs
Description: Cytostatic activity against human SNB-75 cells assessed as total growth inhibition measured after 48 hrs by sulforhodamine B assay

[48] = tested on: IGROV-1; type: functional; conditions: Homo sapiens, time 48 hrs
Description: Cytostatic activity against human IGROV-1 cells assessed as total growth inhibition measured after 48 hrs by sulforhodamine B assay

[49] = tested on: SN12C; conditions: Homo sapiens, 48 h, read-out: LC50
Description: Cytotoxicity activity against human SN12C cells assessed as reduction in cell growth measured after 48 hrs by sulforhodamine B assay

[50] = tested on: UACC-257; type: functional; conditions: Homo sapiens, time 48 hrs; remark: listed apart in the source
Description: Cytostatic activity against human UACC-257 cells assessed as total growth inhibition measured after 48 hrs by sulforhodamine B assay

[51] = tested on: TK-10; type: functional; conditions: Homo sapiens, time 48 hrs
Description: Growth inhibition of human TK-10 cells measured after 48 hrs by sulforhodamine B assay

[52] = tested on: TK-10; type: functional; conditions: Homo sapiens, time 48 hrs; remark: listed apart in the source
Description: Cytostatic activity against human TK-10 cells assessed as total growth inhibition measured after 48 hrs by sulforhodamine B assay

[53] = tested on: OVCAR-5; conditions: Homo sapiens, OVCAR-5, 48 h, read-out: LC50
Description: Cytotoxicity activity against human OVCAR-5 cells assessed as reduction in cell growth measured after 48 hrs by sulforhodamine B assay

[54] = tested on: CAKI-1; conditions: Homo sapiens, CAKI-1, 48 h, read-out: LC50
Description: Cytotoxicity activity against human CAKI-1 cells assessed as reduction in cell growth measured after 48 hrs by sulforhodamine B assay

[55] = tested on: UACC-257; conditions: Homo sapiens, UACC-257, 48 h, read-out: LC50
Description: Cytotoxicity activity against human UACC-257 cells assessed as reduction in cell growth measured after 48 hrs by sulforhodamine B assay

[56] = tested on: ACHN; type: functional; conditions: Homo sapiens, time 48 hrs; remark: listed apart in the source
Description: Growth inhibition of human ACHN cells measured after 48 hrs by sulforhodamine B assay

[57] = tested on: MCF7; type: functional; conditions: Homo sapiens, time 48 hrs
Description: Growth inhibition of human MCF7 cells measured after 48 hrs by sulforhodamine B assay

[58] = tested on: OVCAR-4; type: functional; conditions: Homo sapiens, time 48 hrs
Description: Cytostatic activity against human OVCAR-4 cells assessed as total growth inhibition measured after 48 hrs by sulforhodamine B assay

[59] = tested on: HCT-116; type: functional; conditions: Homo sapiens, time 48 hrs; remark: listed apart in the source
Description: Cytostatic activity against human HCT-116 cells assessed as total growth inhibition measured after 48 hrs by sulforhodamine B assay

[60] = tested on: OVCAR-4; type: functional; conditions: Homo sapiens, time 48 hrs; remark: listed apart in the source
Description: Growth inhibition of human OVCAR-4 cells measured after 48 hrs by sulforhodamine B assay

[61] = tested on: SW-620; type: functional; conditions: Homo sapiens, time 48 hrs
Description: Cytostatic activity against human SW620 cells assessed as total growth inhibition measured after 48 hrs by sulforhodamine B assay

Compound: CCOC(=O)c1ccc(N/N=C/c2cn(-c3ccc(S(N)(=O)=O)cc3)nc2-c2ccc(C)cc2)cc1
- GI50 [1]: 3.24 µM
- TGI [2]: 8.96 µM
- GI50 [3]: 24.4 µM
- CC50 [4]: 58 µM
- CC50 [5]: > 100 µM
- GI50 [6]: 1.97 µM
- GI50 [7]: 2.42 µM
- CC50 [8]: > 100 µM
- CC50 [9]: > 100 µM
- TGI [10]: 7.27 µM
- GI50 [11]: 2.97 µM
- CC50 [12]: > 100 µM
- TGI [13]: 24.3 µM
- TGI [14]: 4.07 µM
- CC50 [15]: > 100 µM
- TGI [16]: 11.5 µM
- TGI [17]: 40.6 µM
- TGI [18]: 27.2 µM
- CC50 [19]: 99.3 µM
- CC50 [20]: > 100 µM
- GI50 [21]: 2.07 µM
- GI50 [22]: 13.2 µM
- CC50 [23]: 59.8 µM
- TGI [24]: 23.4 µM
- CC50 [25]: 74.3 µM
- TGI [26]: 28.1 µM
- TGI [27]: 14.8 µM
- TGI [28]: 3.17 µM
- GI50 [29]: 2.87 µM
- TGI [30]: 4.23 µM
- GI50 [31]: 3.05 µM
- CC50 [32]: 40.2 µM
- CC50 [33]: 9.53 µM
- TGI [34]: 3.15 µM
- TGI [35]: 4.19 µM
- TGI [36]: 9.13 µM
- CC50 [37]: > 100 µM
- GI50 [38]: 2.1 µM
- CC50 [39]: > 100 µM
- CC50 [40]: 35 µM
- GI50 [41]: 3.89 µM
- GI50 [42]: 3.11 µM
- GI50 [43]: 1.87 µM
- GI50 [44]: 4.1 µM
- TGI [45]: 10.9 µM
- GI50 [46]: 6.55 µM
- TGI [47]: 46.4 µM
- TGI [48]: 25.9 µM
- CC50 [49]: > 100 µM
- TGI [50]: 37 µM
- GI50 [51]: 24.5 µM
- TGI [52]: > 100 µM
- CC50 [53]: 63.6 µM
- CC50 [54]: > 100 µM
- CC50 [55]: > 100 µM
- GI50 [56]: 3.04 µM
- GI50 [57]: 2.44 µM
- TGI [58]: 71.5 µM
- TGI [59]: 10.6 µM
- GI50 [60]: 7.08 µM
- TGI [61]: 15.6 µM
